Publication PMC11373361, “Expanding the inhibitor space of the WWP1 and WWP2 HECT E3 ligases” (Journal of Enzyme Inhibition and Medicinal Chemistry, 2024)
pIC50: −log10 of the molar value. “And” between values parts separate entries of the source, which are not always exact repeats. Equal entries are not always repeated.

What was measured:
Format in all cases: biochemical
WWP2-FL = biological target: T1, WWP2-FL (Homo sapiens, UniProt O00308); assay: WWP2 ELISA autoubiquitination assay; details: for relative activity, single-shot autoubiquitination: 1 mM compound, hit threshold less than 50% relative activity; for relative autoubiquitination activity, single-shot: 500 µM compound, normalised to 0% and 100% controls
T1 construct: full-length WWP2 (WWP2-FL); made in house; host or cells: E. coli BL21-CodonPlus RP (plasmid pGEX2T-WWP2-FL, Dr Andrew Chantry's Lab)
T1 sequence (O00308 whole entry): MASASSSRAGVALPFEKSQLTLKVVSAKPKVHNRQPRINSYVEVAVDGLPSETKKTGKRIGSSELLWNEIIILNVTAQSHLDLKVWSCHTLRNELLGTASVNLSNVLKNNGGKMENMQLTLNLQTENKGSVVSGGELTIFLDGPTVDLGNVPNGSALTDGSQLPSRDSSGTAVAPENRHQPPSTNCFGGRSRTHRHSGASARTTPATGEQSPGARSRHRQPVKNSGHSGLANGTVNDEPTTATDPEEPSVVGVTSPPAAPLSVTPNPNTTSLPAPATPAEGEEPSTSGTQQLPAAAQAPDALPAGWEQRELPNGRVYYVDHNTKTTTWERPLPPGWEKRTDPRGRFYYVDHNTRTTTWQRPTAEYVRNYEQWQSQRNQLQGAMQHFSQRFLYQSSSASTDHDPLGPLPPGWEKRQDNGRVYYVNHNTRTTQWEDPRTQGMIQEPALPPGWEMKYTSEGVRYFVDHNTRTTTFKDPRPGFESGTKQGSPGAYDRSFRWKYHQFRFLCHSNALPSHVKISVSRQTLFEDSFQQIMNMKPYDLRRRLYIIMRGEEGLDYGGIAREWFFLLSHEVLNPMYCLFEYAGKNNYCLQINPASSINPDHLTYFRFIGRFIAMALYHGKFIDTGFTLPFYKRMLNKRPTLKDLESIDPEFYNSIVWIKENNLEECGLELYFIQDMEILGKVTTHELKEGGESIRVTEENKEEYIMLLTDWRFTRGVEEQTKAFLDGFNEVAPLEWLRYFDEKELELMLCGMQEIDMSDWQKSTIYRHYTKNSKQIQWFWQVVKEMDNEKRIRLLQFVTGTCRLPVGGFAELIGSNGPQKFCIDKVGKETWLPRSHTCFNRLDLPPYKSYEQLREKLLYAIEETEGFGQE
Protocol: (§1) Cell lysate containing His-tagged WWP1-L34H or GST-tagged WWP2-FL proteins were incubated on either 96-well Clear Pierce glutathione or nickel-coated plates for 1 h in PBS. Reaction mixtures of either 3 ng/well GST-Uba1 and 15 ng/well UbcH7 or 10 ng/well His-Uba1 and 150 ng/well His-UbcH7 were incubated together in 25 mM Tris pH 8.0, 100 mM NaCl, 4 mM MgCl2 containing 60 ng/well FLAG-ubiquitin and 1.25 mM ATP for 40 min. A prior 1% BSA plate blocking step is required for nickel-coated plates. After plate washing, 2 μL of the compound was added at the desired concentration (0.1 – 1% DMSO) followed by 18 μL of the reaction mixture. This was then incubated for 2 h with 0% and 100% controls before 100 μL of anti-FLAG M2-Peroxidase HRP (1: 10,000 PBST) was added to each well and incubated for 1 h. Finally, 100 μL of 1 × TMB substrate solution (Invitrogen) was added to each well and incubated for up to 10 min until sufficient blue colour change was observed. To stop the reaction, 100 μL of 1 M HCl was added. GST-tagged Uba1 counter-assay followed a similar protocol first incubating cell lysate for 1 h before adding 20 µL of reaction mixture containing 60 ng/well FLAG-ubiquitin, 1.25 mM ATP, and 1 mM compound at 1% DMSO. His-tagged UbcH7 counter-assays preincubated 3 ng/well GST-Uba1 and 200 ng/well UbcH7 with the reaction mixture components (60 ng/well FLAG-ubiquitin, 1.25 mM ATP, and 1 mM compound at 1% DMSO) for 1 h before incubating onto nickel-coated plates for a further 1 h. All other steps were followed. The plates were washed three times with PBST (and 15 mM Imidazole) between each step. Quantification was measured by absorbance read at 450 nm, standardised to the 0% and 100% activity controls. A visual representation of the assay steps is shown in SI Figure S13. All assay optimisations have been previously reported by Watt and colleagues. IC50 non-linear regression curves were calculated in GraphPad v10.2 (Prism).
(§2) The DSF hit compounds were initially screened using a single-shot WWP1 and WWP2 ELISA autoubiquitination assay at 500 µM compound (1% DMSO), measuring inhibition against their relative autoubiquitination activity following protocols previously described. […] Four NSC compounds for WWP1 (13151, 73735, 85433 & 637578) and three NSC compounds for WWP2 (26112, 57103 & 217913) were initially selected having a threshold of less than 50% relative activity when compared to 0% and 100% controls (Figure 2).
(§3) The resulting synthesised analogues were screened using the single-shot ELISA autoubiquitination assay at 1 mM compound concentration (1% DMSO) before IC50 values were calculated for hit compounds (SI Figure 2–4).
ELISA Autoubiquitination Assay
Figure S13. Schematic diagram of the WWP2 ELISA autoubiquitination assay. (1a) Immobilisation of GST-Tagged WWP2 on glutathione coated plates. The GST-tagged (green) WWP2-FL (orange) is bound to glutathione (black), further linked via an SSMPB linker (pink) bound to haemoglobin (red). (1b) Reaction mixture of His-E1, His-E2 and flag-tagged Ub. Flag-tagged (red) Ub (dark pink) is first charged to Uba1/E1 (light pink) using ATP (blue) and then transferred to UbcH7/E2 (light brown).
(2) Ub charged E2 incubation with immobilised WWP2. UbcH7/E2 transfers flag-tagged Ub to WWP2 before WWP2 auto-ubiquitination occurs in the absence or presence of compounds (blue). (3) Incubation of recombinant HRP anti-flag antibody with auto-ubiquitinated WWP2. Anti-flag antibody (purple) containing recombinant HRP (orange) associates with the flag-tagged Ub. (4) HRP-mediated oxidation of TMB.
Single-electron oxidation of TMB by HRP in the presence of HO creates first a blue colour change, before acidification results in a yellow colour change (450 nm) stopping

UbcH7 = biological target: T2, UbcH7 (Homo sapiens, UniProt P68036); assay: UbcH7 counter autoubiquitination assay; details: 1 mM compound, 1% DMSO, in Table S6 73735 and 217913 synthesised
T2 construct: made in house; host or cells: E. coli BL21-CodonPlus RP (plasmid pET3a-UbcH7 His, gifted by Professor Martin Scheffner)
T2 sequence (P68036 whole entry): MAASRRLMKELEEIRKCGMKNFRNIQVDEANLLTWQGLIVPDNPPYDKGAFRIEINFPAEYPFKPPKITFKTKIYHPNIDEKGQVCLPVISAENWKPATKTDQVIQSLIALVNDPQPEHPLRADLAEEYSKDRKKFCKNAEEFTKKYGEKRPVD
Protocol: as §1
These preliminary hit compounds were further screened in dose-dependent ELISA autoubiquitination assays from 500 µM − 5 nM, with three NSC compounds for WWP1 (13151, 73735 & 85433) and only two NSC compounds for WWP2 (57103 & 217913) showing a dose-response (SI Table S4). […] To ensure the intended target was being inhibited and not the […] Uba1 (E1) and UbcH7 (E2) enzymes used in the catalytic cascade of the assay, a counter autoubiquitination screen was utilised. Upon counter-activity analysis, only with NSC-217913 did UbcH7 retain more than 90% activity and so this was selected as the sole validated hit compound from our inhibition screen (SI Table S6).

WWP1-L34H = biological target: T3, WWP1-L34H (Homo sapiens, UniProt Q9H0M0); assay: WWP1 ELISA autoubiquitination assay; details: for relative activity, single-shot autoubiquitination: 1 mM compound, hit threshold less than 50% relative activity; for relative autoubiquitination activity, single-shot: 500 µM compound, normalised to 0% and 100% controls
T3 construct: WWP1- 2,3-linker-WW3-WW4-HECT (WWP1-L34H); made in house; host or cells: E. coli BL21-CodonPlus RP (plasmid pET32a-WWP1-L34H, gifted by Dr Wenyu Wen)
Protocol: as §1, §2, §3

[1] = sample used directly from the NCI library, dose range 500 µM - 5 nM
[2] = synthesised compound, WWP2-FL, 1% DMSO, 95% CI range in brackets

CCOC(=O)Cc1cn2cc(Cl)ncc2n1 [Compound 2, Ethyl 6-chloroimidazo[1,2-a]pyrazine-2-acetate]
relative activity, single-shot autoubiquitination (WWP2-FL; 1% DMSO): some decrease in activity

CCOC(=O)Cc1cn2cc(Cl)nc(Cl)c2n1 [Compound 4, Ethyl 6,8-Dichloroimidazo[1,2-a]pyrazine-2-acetate]
relative activity, single-shot autoubiquitination (WWP2-FL; 1% DMSO): some decrease in activity

CCOC(=O)CSc1nc2nc(Cl)cnc2[nH]1 [Compound 5, Ethyl 2-({5-chloro-1H-imidazo[4,5-b]pyrazine-2-yl}sulfanyl)acetate]
relative activity, single-shot autoubiquitination (WWP2-FL; 1% DMSO): some decrease in activity

CCOC(=O)CSc1nc2nc(Cl)c(Cl)nc2[nH]1 [Compound 6, Ethyl 2-({5,6-dichloro-1H-imidazo[4,5-b]pyrazine-2-yl}sulfanyl)-acetate]
UbcH7 Activity (UbcH7): 92.2 ± 1.1% | UbcH7 Activity (UbcH7; listed as NSC-217913): more than 90% | relative autoubiquitination activity, single-shot (WWP2-FL; 1% DMSO): less than 50% | pIC50 (WWP2-FL; [1]): > 4.00 and 4.16 | WWP2 IC50 (WWP2-FL; synthesised compound, WWP2-FL, 1% DMSO, 95% CI range in brackets, listed as 6/217913): Unstable^a | WWP2 IC50 (WWP2-FL; synthesised compound, WWP2-FL, 1% DMSO, 95% CI range in brackets, listed as NSC-217913): too weak to determine accurately | pIC50 (WWP1-L34H; [1]): 4.48 | pIC50 (WWP1-L34H; synthesised compound, WWP1-L34H, 1% DMSO, 95% CI range in brackets): 3.80

N#CCSc1nc2nc(Cl)c(Cl)nc2[nH]1 [Compound 7, 2-({5,6-Dichloro-1H-imidazo[4,5-b]pyrazine-2-yl}sulfanyl)acetonitrile]
UbcH7 Activity (UbcH7): 94.2 ± 0.8% | pIC50 (WWP2-FL; [2]): 3.07 | WWP2 IC50 (WWP2-FL; [2]): only limited inhibition

CCCC(C)Sc1nc2nc(Cl)c(Cl)nc2[nH]1 (stereo not drawn) [Compound 8, 2-({5,6-dichloro-1H-imidazo[4,5-b]pyrazine-2-yl}sulfanyl)pentane]
relative activity, single-shot autoubiquitination (WWP2-FL; 1% DMSO): rather small decrease in relative activity | relative activity, single-shot autoubiquitination (WWP1-L34H; 1% DMSO): rather small decrease in relative activity

O=C(CSc1nc2nc(Cl)c(Cl)nc2[nH]1)N1CCOCC1 [Compound 9, 2-({5,6-dichloro-1H-imidazo[4,5-b]pyrazine-2-yl}sulfanyl)acetylmorpholine]
pIC50 (WWP2-FL; [2]): 3.21 | relative activity, single-shot autoubiquitination (WWP1-L34H; 1% DMSO): failed to reach the activity threshold

CCCC(=O)CSc1nc2nc(Cl)c(Cl)nc2[nH]1 [Compound 10]
relative activity, single-shot autoubiquitination (WWP2-FL; 1% DMSO): rather small decrease in relative activity | relative activity, single-shot autoubiquitination (WWP1-L34H; 1% DMSO): rather small decrease in relative activity

CCOC(=O)CNC(=O)CSc1nc2nc(Cl)c(Cl)nc2[nH]1 [Compound 12, Ethyl 2-({5,6-dichloro-1H-imidazo[4,5-b]pyrazine-2-yl}sulfanyl)acetamidoacetate]
relative activity, single-shot autoubiquitination (WWP2-FL; 1% DMSO): better single-shot data | relative activity, single-shot autoubiquitination (WWP1-L34H; 1% DMSO): better single-shot data

O=C(O)CCSc1nc2nc(Cl)c(Cl)nc2[nH]1 [Compound 13, 3-({5,6-Dichloro-1H-imidazo[4,5-b]pyrazine-2-yl}sulfanyl)propionic acid]
pIC50 (WWP2-FL; [2]): 3.22 | relative activity, single-shot autoubiquitination (WWP1-L34H; 1% DMSO): failed to reach the activity threshold

COC(=O)[C@H](COC(C)(C)C)NC(=O)CSc1nc2nc(Cl)c(Cl)nc2[nH]1 [Compound 14, Methyl 3-(tert-butoxy)-2(S)-[2-({5,6-dichloro-1H-imidazo[4,5-b]pyrazine-2-yl}sulfanyl)acetamido]propionate]
relative activity, single-shot autoubiquitination (WWP2-FL; 1% DMSO): rather small decrease in relative activity | relative activity, single-shot autoubiquitination (WWP1-L34H; 1% DMSO): rather small decrease in relative activity

O=C(O)CNC(=O)CSc1nc2nc(Cl)c(Cl)nc2[nH]1 [Compound 16, 2-({5,6-dichloro-1H-imidazo[4,5-b]pyrazine-2-yl}sulfanyl)acetamidoacetic acid]
relative activity, single-shot autoubiquitination (WWP2-FL; 1% DMSO): better single-shot data | relative activity, single-shot autoubiquitination (WWP1-L34H; 1% DMSO): better single-shot data

O=C(CSc1nc2nc(Cl)c(Cl)nc2[nH]1)N[C@@H](CO)C(=O)O [Compound 17, 3-hydroxy-2(S)-[({5,6-dichloro-1H-imidazo[4,5-b]pyrazine-2-yl}sulfanyl)acetamido]propanoic acid]
UbcH7 Activity (UbcH7): 88.8 ± 0.7%

CCOC(=O)CSc1nc2nccnc2[nH]1 [Compound 20, Ethyl 2-({1H-imidazo[4,5-b]pyrazine}sulfanyl-2-yl)acetate]
relative activity, single-shot autoubiquitination (WWP1-L34H; 1% DMSO): reducing relative activity

CCOC(=O)CSc1nc2cncnc2[nH]1 [Compound 21, Ethyl 2-({9H-imidazo[4,5-d]pyrimidine}sulfan-8-yl)acetate]
relative activity, single-shot autoubiquitination (WWP1-L34H; 1% DMSO): reducing relative activity

Nc1nc2nc(Br)cnc2s1 [Compound 26, 5-bromothiazolo[4,5-b]pyrazine-2-amine]
relative activity, single-shot autoubiquitination (WWP2-FL; 1% DMSO): some decrease in activity

O=C(/C=C/c1ccccc1Cl)c1ccc(O)cc1 [NSC-13151]
relative autoubiquitination activity, single-shot (WWP1-L34H; 1% DMSO): less than 50% | pIC50 (WWP1-L34H; [1]): 3.40

Cc1ccc(C=C2C(Cl)=C(Cl)C(Cl)=C2Cl)cc1 [NSC-26112]
relative autoubiquitination activity, single-shot (WWP2-FL; 1% DMSO): less than 50%

O=[N+]([O-])c1cc([N+](=O)[O-])c2cccnc2c1O [NSC-57103]
relative autoubiquitination activity, single-shot (WWP2-FL; 1% DMSO): less than 50% | pIC50 (WWP2-FL; [1]): 3.29

COc1cc(-c2ccc(Nc3ccccc3C(=O)O)c(OC)c2)ccc1Nc1ccccc1C(=O)O [NSC-73735]
UbcH7 Activity (UbcH7): 62.5 ± 2.4% | pIC50 (WWP2-FL; [1]): 4.31 | relative autoubiquitination activity, single-shot (WWP1-L34H; 1% DMSO): less than 50%

NC(=Nc1nc(-c2ccccn2)cc2ccccc12)c1ccccn1 [NSC-637578]
relative autoubiquitination activity, single-shot (WWP1-L34H; 1% DMSO): less than 50%

Ethyl 2-[({imidazo[4,5-c]pyridine}sulfan-2-yl-5N-(ethyl-2-acetate))]acetate [Compound 23]
relative activity, single-shot autoubiquitination (WWP1-L34H; 1% DMSO): reducing relative activity
